Literature values, collected in US20110086355A1, “BRCA1 mRNA EXPRESSION LEVELS PREDICT SURVIVAL IN BREAST CANCER PATIENTS TREATED WITH NEOADJUVANT CHEMOTHERAPY” (PANGAEA BIOTECH, S.A., priority 2008, published 2011).

Assays:
breast cancer cell line = details: BRCA1 mRNA determined by RT-QPCR
[1] = system: SKOV-3 human ovarian cancer cell line
[2] = system: HCC1937 breast cancer cell line; details: wild-type BRCA1 reconstituted vs BRCA1-negative HCC1937
[3] = system: Mouse models carrying conditional disruption of BRCA1

| Structure (SMILES) | change of sensitivity after decreased BRCA1 mRNA expression (breast cancer cell line) | sensitivity of BRCA1-disrupted mouse models [3] | further results |
| --- | --- | --- | --- |
| CC(=O)O[C@H]1C(=O)[C@@]2(C)[C@H]([C@H](OC(=O)c3ccccc3)[C@]3(O)C[C@H](OC(=O)[C@H](O)[C@@H](NC(=O)c4ccccc4)c4ccccc4)C(C)=C1C3(C)C)[C@]1(OC(C)=O)CO[C@@H]1C[C@@H]2O [paclitaxel] | greater resistance | – | – |
| COc1cc([C@@H]2c3cc4c(cc3[C@@H](O[C@@H]3O[C@@H]5CO[C@@H](C)O[C@H]5[C@H](O)[C@H]3O)[C@H]3COC(=O)[C@H]23)OCO4)cc(OC)c1O [etoposide] | greater sensitivity | – | – |
| N.N.[Cl][Pt][Cl] [cisplatin] | greater sensitivity | – | resistance after upregulation of BRCA1 expression [1]: increased cisplatin resistance; increase in resistance [2]: 20 fold |
| COc1cccc2c1C(=O)c1c(O)c3c(c(O)c1C2=O)C[C@@](O)(C(=O)CO)C[C@@H]3O[C@H]1C[C@H](N)[C@H](O)[C@H](C)O1 [doxorubicin] | – | highly sensitive | – |
| CC[C@]1(O)C[C@H]2CN(CCc3c([nH]c4ccccc34)[C@@](C(=O)OC)(c3cc4c(cc3OC)N(C=O)[C@H]3[C@@](O)(C(=O)OC)[C@H](OC(C)=O)[C@]5(CC)C=CCN6CC[C@]43[C@@H]65)C2)C1 [vincristine] | greater resistance | – | – |
| CC/C(=C(\c1ccccc1)c1ccc(OCCN(C)C)cc1)c1ccccc1 [tamoxifen] | – | resistant | – |
